This note sets out measurements from ChEMBL document CHEMBL4033607, “Structurally Diverse Alkaloids from the Seeds of Peganum harmala” (J Nat Prod, 2017).

Holding throughout (format): functional, cell-based
One assay relates to HL-60. The experiment in a line: Antiproliferative activity against human HL60 cells by tryphan blue assay.
The test system of the next assay is PC-3. The experiment in a line: Antiproliferative activity against human PC3 cells by MTT assay. For orientation: Formazan colour is commonly taken as a measure of viable cells.
For another assay, the system named is SGC-7901. Nature of the assay: Antiproliferative activity against human SGC7901 cells by MTT assay.

Turning to `COc1ccc2c3c([nH]c2c1)-c1nc2ccccc2c(=O)n1CC3`, the IC50 in the assay on HL-60, with PC-3 and in the assay with SGC-7901 was above 10 µM in each case.
For the molecule `COc1ccc2c3c([nH]c2c1)C(=O)NCC3`, the IC50 with HL-60, with PC-3 and in the assay with SGC-7901 was above 10 µM throughout.
As to `COc1cc(Cc2cncs2)cc(OC)c1O`, the IC50 with HL-60, with PC-3 and in the assay on SGC-7901 was above 10 µM throughout.
With `COc1ccc2c3ccnc4cc(C)c(=O)n(c2c1)c43`, the IC50 in the assay with HL-60, in the assay on PC-3 and with SGC-7901 was above 10 µM in each case.
Regarding `COc1ccc2c3c([nH]c2c1)C(c1cnc2ccccc2c1)=NCC3`, the IC50 in the assay with HL-60, in the assay on PC-3 and in the assay with SGC-7901 was above 10 µM in each case.
For `COc1ccc2c(c1)[nH]c1c(CO)nccc12`, the midpoint of inhibition in the assay with HL-60, the IC50, lay at 4.36 µM.
In the case of `CCc1nccc2c1[nH]c1cc(OC)ccc12`, the IC50 (in general, the concentration at which inhibition is half-maximal) in the assay with HL-60 was determined as 9.05 µM.
Take `COC(=O)N1CC[C@@]2(O)c3ccc(OC)cc3N(C(=O)OC)[C@@]12C`: the half-maximal inhibitory concentration (IC50) with HL-60, in the assay with PC-3 and in the assay on SGC-7901 was above 10 µM each time.
As for `COC(=O)N1c2cc(OC)ccc2[C@@]2(O)CCN[C@@]12C`, the IC50 in the assay on HL-60, in the assay on PC-3 and in the assay with SGC-7901 was above 10 µM in each case.
For the molecule `COC(=O)/C=C1/c2[nH]c3cc(OC)ccc3c2CCN1C(C)=O`, the IC50 in the assay on HL-60, in the assay on PC-3 and in the assay with SGC-7901 was above 10 µM throughout.
Take `COc1ccc2c(c1)[nH]c1c(C(N)=O)nccc12`: the IC50 in the assay with HL-60, in the assay with PC-3 and in the assay with SGC-7901 was above 10 µM in each case.
Turning to `COc1ccc2c3c([nH]c2c1)C(C)=[N+]([O-])CC3`, the IC50 in the assay on HL-60, with PC-3 and in the assay on SGC-7901 was above 10 µM throughout.
As for `COC(=O)N1CC[C@]2(O)c3ccc(OC)cc3N(C(=O)OC)[C@]12C`, the IC50 with HL-60, with PC-3 and in the assay with SGC-7901 was above 10 µM throughout.
Consider `COc1ccc2c(c1)[nH]c1c(C)[n+]([O-])ccc12`, for which the IC50 with HL-60, in the assay on PC-3 and in the assay with SGC-7901 was above 10 µM in each case.
As to `COc1ccc2c3c([nH]c2c1)-c1cc(CO)cc(=O)n1CC3`, the IC50 in the assay on HL-60, with PC-3 and in the assay with SGC-7901 was above 10 µM in each case.
Molecule `COc1ccc2c3c([nH]c2c1)-c1cccc(=O)n1CC3` showed an IC50 in the assay on HL-60 of 9.25 µM.
For `COC(=O)N1c2cc(OC)ccc2[C@]2(O)CCN[C@]12C`, the IC50 in the assay with HL-60, with PC-3 and with SGC-7901 was above 10 µM throughout.
Regarding `COc1cc(Cc2cnc(C)s2)cc(OC)c1O`, the IC50 in the assay with HL-60, in the assay with PC-3 and with SGC-7901 was above 10 µM each time.
For the molecule `COc1ccc2c(c1)[nH]c1c(C(C)=O)nccc12` [ARENARINE C], the IC50 with HL-60, in the assay on PC-3 and in the assay with SGC-7901 was above 10 µM each time.
Regarding `COc1ccc2c3c([nH]c2c1)C(C)=NCC3` [HARMALINE], the IC50 in the assay with HL-60, in the assay with PC-3 and in the assay on SGC-7901 was above 10 µM in each case.
As to `Cc1nccc2c1[nH]c1ccccc12` [HARMAN], the IC50 in the assay on HL-60, with PC-3 and in the assay on SGC-7901 was above 10 µM each time.
For `COC(=O)c1nccc2c1[nH]c1cc(OC)ccc12` [HARMIC ACID METHYL ESTER], the IC50 with HL-60, in the assay with PC-3 and in the assay with SGC-7901 was above 10 µM throughout.
